Here are results for one compound from ChEMBL document CHEMBL1121693 (1981).

Each structure is given as a SMILES string.

Type in all cases: functional
The species named for assay [1] is Mus musculus.
Assay [2] is filed under the species Mus musculus. The source holds these as a separate data set.
Assay [3] is filed under the species Mus musculus. The source holds these as a separate data set.

As to `c1ccc(C2(N3CCCCC3)CCCCC2)cc1` [PHENCYCLIDINE], the results for the No. of mice in the assay listed under Mus musculus [1], in the assay listed under Mus musculus [2] and in the assay filed under Mus musculus [3] were 4, 0 and 0, respectively.
